The record followed here is paper PMC7824535, “Inhibitory Effect of Antidesma bunius Fruit Extract on Carbohydrate Digestive Enzymes Activity and Protein Glycation In Vitro” (Antioxidants, 2020).

≈ marks a conversion by molar mass, not a printed value.

The test deals with T1, intestinal maltase.
T1 construct: gene Mgam; native, supernatant of rat intestinal acetone powder, not purified; maltase activity of several enzymes
Briefly: glucose release by glucose oxidase method, […] nm. To be noted: maltose substrate (86 mM stock, 30 µL), 0.1 M phosphate buffer pH 6.9, 37 °C, 30 min; crude rat intestinal extract. Format: biochemical.

With `C[C@H]1O[C@H](O[C@H]2[C@H](O)[C@@H](O)[C@@H](O[C@H]3[C@H](O)[C@@H](O)C(O)O[C@@H]3CO)O[C@@H]2CO)[C@H](O)[C@@H](O)[C@@H]1N[C@H]1C=C(CO)[C@@H](O)[C@H](O)[C@H]1O` (stereo partly shown) [Acarbose], the “IC50 Values / Maltase” value was 0.89 ± 0.07 mg/L (≈ 1.38 µM).
